Measured values published in PubChem BioAssay (NCI).
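How tested: cells in 96-well plates exposed to compound for 48 hours at five concentrations. At the TGI there is no net growth.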

Key:
Assay in all cases: NCI tumour cell line growth inhibition, 48 h
786-0 renal = tested on: 786-0 renal
A498 renal = tested on: A498 renal
A549 NSCLC = tested on: A549 NSCLC
ACHN renal = tested on: ACHN renal
BT-549 breast = tested on: BT-549 breast
CAKI-1 renal = tested on: CAKI-1 renal
CCRF-CEM leukemia = tested on: CCRF-CEM leukemia
COLO 205 colon = tested on: COLO 205 colon
DU-145 prostate = tested on: DU-145 prostate
EKVX NSCLC = tested on: EKVX NSCLC
HCC-2998 colon = tested on: HCC-2998 colon
HCT-116 colon = tested on: HCT-116 colon
HCT-15 colon = tested on: HCT-15 colon
HL-60(TB) leukemia = tested on: HL-60(TB) leukemia
HOP-92 NSCLC = tested on: HOP-92 NSCLC
HS 578T breast = tested on: HS 578T breast
IGROV1 ovarian = tested on: IGROV1 ovarian
K-562 leukemia = tested on: K-562 leukemia
KM12 colon = tested on: KM12 colon
LOX IMVI melanoma = tested on: LOX IMVI melanoma
M14 melanoma = tested on: M14 melanoma
MALME-3M melanoma = tested on: MALME-3M melanoma
MCF7 breast = tested on: MCF7 breast
MDA-MB-231 breast = tested on: MDA-MB-231 breast
MDA-MB-435 = tested on: MDA-MB-435
MDA-N = tested on: MDA-N
MOLT-4 leukemia = tested on: MOLT-4 leukemia
NCI-H226 lung = tested on: NCI-H226 lung
NCI-H460 lung = tested on: NCI-H460 lung
NCI-H522 lung = tested on: NCI-H522 lung
NCI/ADR-RES ovarian = tested on: NCI/ADR-RES ovarian
OVCAR-3 ovarian = tested on: OVCAR-3 ovarian
OVCAR-4 ovarian = tested on: OVCAR-4 ovarian
OVCAR-5 ovarian = tested on: OVCAR-5 ovarian
OVCAR-8 ovarian = tested on: OVCAR-8 ovarian
PC-3 prostate = tested on: PC-3 prostate
RPMI-8226 leukemia = tested on: RPMI-8226 leukemia
RXF 393 renal = tested on: RXF 393 renal
SF-268 CNS = tested on: SF-268 CNS
SF-295 CNS = tested on: SF-295 CNS
SF-539 CNS = tested on: SF-539 CNS
SK-MEL-2 melanoma = tested on: SK-MEL-2 melanoma
SK-MEL-28 melanoma = tested on: SK-MEL-28 melanoma
SK-MEL-5 melanoma = tested on: SK-MEL-5 melanoma
SN12C renal = tested on: SN12C renal
SNB-19 CNS = tested on: SNB-19 CNS
SNB-75 CNS = tested on: SNB-75 CNS
SR leukemia = tested on: SR leukemia
SW-620 colon = tested on: SW-620 colon
T-47D breast = tested on: T-47D breast
TK-10 renal = tested on: TK-10 renal
U251 CNS = tested on: U251 CNS
UACC-257 melanoma = tested on: UACC-257 melanoma
UACC-62 melanoma = tested on: UACC-62 melanoma
UO-31 renal = tested on: UO-31 renal
HOP-62 NSCLC = tested on: HOP-62 NSCLC
HT29 colon = tested on: HT29 colon
NCI-H23 lung = tested on: NCI-H23 lung
SK-OV-3 ovarian = tested on: SK-OV-3 ovarian

Measured: TGI

O=C(Nc1ccc(Cl)cc1)c1cc(S(=O)(=O)N2CCNNC2=O)c(S)cc1Cl
96.1 µM: HOP-92 NSCLC
53.2 µM: RXF 393 renal
> 100 µM: 786-0 renal | A498 renal | A549 NSCLC | ACHN renal | BT-549 breast | CAKI-1 renal | CCRF-CEM leukemia | COLO 205 colon | DU-145 prostate | EKVX NSCLC | HCC-2998 colon | HCT-116 colon | HCT-15 colon | HL-60(TB) leukemia | HS 578T breast | IGROV1 ovarian | K-562 leukemia | KM12 colon | LOX IMVI melanoma | M14 melanoma | MALME-3M melanoma | MCF7 breast | MDA-MB-231 breast | MDA-MB-435 | MDA-N | MOLT-4 leukemia | NCI-H226 lung | NCI-H460 lung | NCI-H522 lung | NCI/ADR-RES ovarian | OVCAR-3 ovarian | OVCAR-4 ovarian | OVCAR-5 ovarian | OVCAR-8 ovarian | PC-3 prostate | RPMI-8226 leukemia | SF-268 CNS | SF-295 CNS | SF-539 CNS | SK-MEL-2 melanoma | SK-MEL-28 melanoma | SK-MEL-5 melanoma | SN12C renal | SNB-19 CNS | SNB-75 CNS | SR leukemia | SW-620 colon | T-47D breast | TK-10 renal | U251 CNS | UACC-257 melanoma | UACC-62 melanoma | UO-31 renal

Cn1c(=S)[nH]c(N)c(Cc2ccccc2)c1=O
97.1 µM: HOP-92 NSCLC
> 100 µM: 786-0 renal | A498 renal | A549 NSCLC | ACHN renal | BT-549 breast | CAKI-1 renal | CCRF-CEM leukemia | COLO 205 colon | DU-145 prostate | EKVX NSCLC | HCC-2998 colon | HCT-116 colon | HCT-15 colon | HL-60(TB) leukemia | HOP-62 NSCLC | HS 578T breast | HT29 colon | K-562 leukemia | KM12 colon | LOX IMVI melanoma | M14 melanoma | MALME-3M melanoma | MCF7 breast | MDA-MB-231 breast | MDA-MB-435 | MDA-N | MOLT-4 leukemia | NCI-H226 lung | NCI-H23 lung | NCI-H460 lung | NCI/ADR-RES ovarian | OVCAR-3 ovarian | OVCAR-4 ovarian | OVCAR-5 ovarian | OVCAR-8 ovarian | PC-3 prostate | RPMI-8226 leukemia | RXF 393 renal | SF-268 CNS | SF-295 CNS | SF-539 CNS | SK-MEL-2 melanoma | SK-MEL-28 melanoma | SK-MEL-5 melanoma | SK-OV-3 ovarian | SN12C renal | SNB-19 CNS | SNB-75 CNS | SR leukemia | SW-620 colon | T-47D breast | TK-10 renal | U251 CNS | UACC-257 melanoma | UACC-62 melanoma
68.4 µM: IGROV1 ovarian

c1ccc(/C(=N/Nc2ccccn2)c2cccnn2)cc1
24.9 µM: SF-539 CNS
13.2 µM: NCI/ADR-RES ovarian
> 52.6 µM: UACC-62 melanoma
27.1 µM: MOLT-4 leukemia
18 µM: IGROV1 ovarian
> 50.3 µM: NCI-H23 lung
52.3 µM: SK-MEL-5 melanoma
18.5 µM: M14 melanoma
> 93.4 µM: MCF7 breast
> 86.9 µM: SNB-19 CNS
> 79 µM: HS 578T breast
32.7 µM: SNB-75 CNS
16.7 µM: EKVX NSCLC
29.7 µM: SF-295 CNS
24.5 µM: ACHN renal
11.2 µM: NCI-H226 lung
> 41.6 µM: CAKI-1 renal
> 75.5 µM: MDA-MB-231 breast
18.9 µM: OVCAR-8 ovarian
> 78.8 µM: SW-620 colon
6.02 µM: UO-31 renal
> 58.8 µM: HT29 colon
> 69.8 µM: A549 NSCLC
6.42 µM: SF-268 CNS
4.93 µM: NCI-H522 lung
71.3 µM: HL-60(TB) leukemia
> 100 µM: 786-0 renal | A498 renal | BT-549 breast | COLO 205 colon | DU-145 prostate | HCC-2998 colon | HCT-116 colon | HCT-15 colon | K-562 leukemia | KM12 colon | LOX IMVI melanoma | MDA-MB-435 | MDA-N | NCI-H460 lung | OVCAR-3 ovarian | OVCAR-4 ovarian | OVCAR-5 ovarian | PC-3 prostate | RXF 393 renal | SK-MEL-2 melanoma | SK-MEL-28 melanoma | T-47D breast | TK-10 renal | U251 CNS | UACC-257 melanoma
> 39.5 µM: HOP-92 NSCLC
> 67.9 µM: MALME-3M melanoma
> 47.6 µM: SK-OV-3 ovarian
40.7 µM: SN12C renal
> 63.8 µM: HOP-62 NSCLC
> 20.8 µM: SR leukemia
17 µM: RPMI-8226 leukemia

COc1ccc(-c2c3c(nc4nc(SCC(=O)c5ccc(Br)cc5)nc(N)c24)CCCC3)cc1OC
28.6 µM: HS 578T breast
28.1 µM: SNB-75 CNS
59.2 µM: RXF 393 renal
> 100 µM: A549 NSCLC | ACHN renal | BT-549 breast | CAKI-1 renal | CCRF-CEM leukemia | COLO 205 colon | DU-145 prostate | EKVX NSCLC | HCT-116 colon | HCT-15 colon | HL-60(TB) leukemia | HOP-62 NSCLC | HT29 colon | IGROV1 ovarian | K-562 leukemia | KM12 colon | LOX IMVI melanoma | M14 melanoma | MALME-3M melanoma | MCF7 breast | MDA-MB-231 breast | MDA-MB-435 | MDA-N | NCI-H23 lung | NCI-H460 lung | NCI/ADR-RES ovarian | OVCAR-3 ovarian | OVCAR-4 ovarian | OVCAR-5 ovarian | OVCAR-8 ovarian | PC-3 prostate | RPMI-8226 leukemia | SF-268 CNS | SF-295 CNS | SF-539 CNS | SK-MEL-28 melanoma | SK-OV-3 ovarian | SN12C renal | SNB-19 CNS | SR leukemia | SW-620 colon | T-47D breast | TK-10 renal | U251 CNS | UACC-257 melanoma | UACC-62 melanoma | UO-31 renal
21.7 µM: SK-MEL-5 melanoma
